Results reported in US20080176787A1, “Parathyroid hormone analogues and methods of use” (priority 2005, published 2008).
Positions of bridges follow the written chain, without caps; N, C: chain ends. Residues, ends and D or L forms follow the SMILES beside them.

Legend:
[1] = test system: post-menopausal women with low bone mineral density; assay: Dose/weight cutoff subgroup analysis and modeling of Phase II 30 and 45 μg cohorts; type: in vivo, human; conditions: for Headache / HyperCa > 2.65 / HyperCa > 2.75 / N + H / Nausea: unit assumed
Method: The effect of the dose optimization strategy was evaluated by performing subgroup analyses using actual data from the 30 and 45 μg cohorts of the study (i.e. creation of a new subgroup by combining all patients below the weight cutoff from the 30 μg dose group with all patients above the weight cutoff from the 45 μg dose group, shown in the table below).
A variety of new subgroups were created out of the patients who participated in the Phase II clinical trial. The groups from Phase II are shown above, where each group received a single dose, either 7.5 μg, 15 μg, 30 μg, 45 μg, or placebo. The 30 μg and 45 μg dose groups were re-grouped, according to the weight of the patient, and over 100 new sub-groups were created. This approach of creating new sub-groups out of dosages which are relatively close to each other, is a novel way of conducting Phase II studies.
For the 105 patients who were originally given 30 or 45 μg, new groups were created by utilizing multiple weight cut-offs in increments of 0.5 kg. For example, one new group had the weight cut-off at 59 kg, meaning that every patient from the original low dose (30 μg) group who weighed less than 59 kg and every patient who weighed more than 59 kg from the original high dose (45 μg) group formed a new cohort. This new cohort represents a dose/weight cut-off of 59 kg, a group in which patients weighing less than 59 kg receive the low dose (30 μg) and patients weighing more than 59 kg receive the high dose (45 μg). Another example can be illustrated using a weight cutoff of 68 kg. Such a group would include all those patients who weigh less than 68 kg and who originally received the low dose (30 μg) as well as all those patients who weigh more than 68 kg and who originally received the high dose (45 μg). By using this method, over 100 separate cohorts were created by altering the dose/weight cut-off in increments of 0.5 kg. A summary of the data generated by these new dose/weight cut-off cohorts, using 68 kg and 59 kg as the dose/weight cut-off, is shown in the table below.
The table above illustrates the actual clinical profile obtained for two dose/weight cutoffs (59 kg which produces a higher exposure profile since more patients receive the higher dose and 68 kg in which more patients receive the lower dose). […] One problem with simple subgroup analysis is that endpoints with a small number of events can skew the observed profile because of large changes in incidence when one of these events moves from one side of the weight cutoff to the other. Therefore, the dose/weight cutoff methodology was applied systematically to the data from the 30 and 45 μg dose groups starting at the lowest weight patient in the study (corresponds to the 45 μg profile because everyone receives the high dose) and increasing the cutoff by 0.5 kg increments through 100 kg (corresponding to the 30 μg profile because everyone receives the low dose). The multiple cutoff profiles thus obtained when graphed can then smooth out the effect of individual events as illustrated for the effect on hypercalcemia. The effect of weight cutoff on clinical profile can then be modeled to eliminate the skewing effects of individual data points as illustrated in FIG. 37-40. This approach has been applied to primary and secondary endpoints in the study.
An important benefit of this modeling is that it is possible to project a clinical profile for a specific weight cutoff/dose exposure window with a high degree of accuracy since the effect of individual events is eliminated. The anticipated hypercalcemia and lumbar spine BMD profile for a 68 kg cutoff is illustrated in the table below, which compares the modeled hypercalcemia and lumbar spine BMD changes and the actual Phase II data for the 68 kg weight cutoff. It will also be possible to model the effects of even narrower exposure windows by using multiple dose cutoffs and different doses.

rats = assay: Rat oncogenicity study, 104 weeks subcutaneous; type: in vivo; conditions: 0.5, 5, 30, and 50 μg/kg/day SC
Method: Prior art PTHs cause osteosarcomas in animals if administered over a course of two years. The PTH peptides of the present invention, including Ostabolin-C™ and PTH 1-30, are administered subcutaneously to rats for 104 weeks at doses of 0.5, 5, 30, and 50 μg/kg/day. The test article is administered subcutaneously. […] This difference could be due to the different amino acids sequences and/or to the different signalling pathways activated by the PTH molecules.

[2] = Ostabolin-C Inhalation Powder (OCIP) Phase I pharmacokinetics; type: in vivo; conditions: female, human, blood
Method: A Phase I clinical study was undertaken using Ostabolin-C™ Inhalation Powder (OCIP) to establish an MTD in post-menopausal women, to compare its PK profile with Phase II sub-cutaneous doses, and to evaluate biological activity with cAMP and biomarkers of bone turnover. The OCIP was administered using the Nektar T-326 dry powder inhaler (DPI), which is well-accepted by osteoporosis patients in focus groups. An ascending dose tolerance was used. Each cohort was randomized and included 6 active patients and 2 placebo patients. The patients were post menopausal healthy females that were older than 40 years of age and had no known history of osteoporosis or other bone disease.
The primary measurements were taken at clinical laboratories where patient surveys were taken and the patient could describe any adverse events. Additionally the patients' vital signs were taken with Holter monitoring of EKGs and Spirometry. Pharmacokinetics, such as Ostabolin-C blood levels, PK parameters after a single dose and after 7 days of daily dosing were also measured. Pharmacodynamics were also monitored for changes in bone markers including P1NP, Osteocalcin, NTx, CTx, and urine cyclic AMP.

Toxicity, 12 mth monkey = type: in vivo; conditions: in vivo; Ostabolin C, 12 mth monkey
Source text: (§1) A NoAEL was not established for the monkey. […] Ostabolin-C™ is at least 4-fold safer than PTH-(1-34).

monkey = assay: Toxicity, 12 mth monkey; type: in vivo
Source text: as §1

[3] = test system: post-menopausal women with low bone mineral density; conditions: human, in vivo
Source text: A four month Phase II clinical study was undertaken to investigate the safety, tolerability and efficacy of Ostabolin-C™ in post-menopausal women with low bone mineral density (BMD). […] The clinical protocol is a 16-week phase II randomized, double-blind, placebo-controlled, parallel group, dose finding study to investigate the safety, tolerability and efficacy of Ostabolin-C™ in post-menopausal women with low bone mineral density (BMD). In this study, 261 patients underwent four months of daily dosing of placebo and four active groups. The active groups included daily administration of Ostabolin-C™ in doses of 7.5, 15, 30, and 45 μg. Ostabolin-C™ is formulated as a clear, colorless liquid provided in pre-filled syringes and injected subcutaneously (SC). Subjects self-administer SC 0.1 mL injections of their assigned dose of Ostabolin-C™ 7.5, 15, 30, and 45 μg or placebo daily for 16 weeks in rotating quadrants of the abdomen. The subjects were post-menopausal women (for at least 5 years) with moderate osteoporosis.
The key endpoints for the study include change in mean BMD at the lumbar spine, as assessed by dual energy x-ray absorptiometry (DEXA), and measured by change from the Baseline visit. The Baseline visit is the first visit of the patient, before undergoing any treatment. Secondary efficacy endpoints include the following, as measured by change from Baseline visit:
DEXA: Bone formation and resorption markers: • Mean femoral neck BMD • Serum osteocalcin • Mean trochanter BMD • Serum amino terminal pro-peptide of type 1 pro-collagen (P1NP) • Mean total hip BMD • Mean radial BMD (distal and midshaft) • Bone specific alkaline phosphatase (BSAP) • Bone mineral content (BMC) • Serum C-telopeptide (CTx) • Bone area • Serum N-telopeptide (NTx)

Q: Which results are given for `CC[C@H](C)[C@H](NC(=O)[C@H](CCC(=O)O)NC(=O)[C@H](CO)NC(=O)[C@@H](NC(=O)[C@@H](N)CO)C(C)C)C(=O)N[C@@H](CCC(N)=O)C(=O)N[C@@H](CC(C)C)C(=O)N[C@@H](CCSC)C(=O)N[C@@H](Cc1c[nH]cn1)C(=O)N[C@@H](CC(N)=O)C(=O)N[C@@H](CC(C)C)C(=O)NCC(=O)N[C@@H](CCCCN)C(=O)N[C@@H](Cc1c[nH]cn1)C(=O)N[C@@H](CC(C)C)C(=O)N[C@@H](CC(N)=O)C(=O)N[C@@H](CO)C(=O)N[C@@H](CCSC)C(=O)N[C@@H](CCC(=O)O)C(=O)N[C@@H](CCCN=C(N)N)C(=O)N[C@H](C(=O)N[C@H]1CCC(=O)NCCCC[C@@H](C(=O)N[C@@H](CC(C)C)C(=O)N[C@@H](CC(C)C)C(=O)N[C@@H](CCC(N)=O)C(=O)N[C@@H](CC(=O)O)C(=O)N[C@H](C(N)=O)C(C)C)NC(=O)[C@H](CCCN=C(N)N)NC(=O)[C@H](CC(C)C)NC(=O)[C@H](Cc2c[nH]c3ccccc23)NC1=O)C(C)C` [Ostabolin-C, [Leu^27]cyclo[Glu^22-Lys^26]-PTH-(1-31)-NH2] (H-SVSEIQLMHNLGKHLNSMERVEWLRKLLQDV-NH2; lactam 22-26)?
A: % of hypercalcemia ([1]; 4 months, weight cutoff of approximately 68 kg (FIG. 37)): less than 15%; Sitting HR ([1]; 59 kg cut): 4.1; Headache ([1]; 59 kg cut): 20.6%; HyperCa > 2.65 ([1]; 59 kg cut): 22%; HyperCa > 2.75 ([1]; 59 kg cut): 6%; N + H ([1]; 59 kg cut): 12.7%; Nausea ([1]; 59 kg cut): 31.7%; Sitting HR ([1]; 68 kg cut): 3.1; Headache ([1]; 68 kg cut): 12.8%; HyperCa > 2.65 ([1]; 68 kg cut): 12.8%; HyperCa > 2.75 ([1]; 68 kg cut): 7.7%; N + H ([1]; 68 kg cut): 10.6%; Nausea ([1]; 68 kg cut): 31.9%; HyperCa > 2.65 ([1]; 68 kg cutoff, modeled): 14.8%; HyperCa > 2.75 ([1]; 68 kg cutoff, modeled): 7.6%; incidence of osteosarcomas compared to prior art PTH peptides (rats): lower incidences of osteosarcomas; Cmax ([2]; subcutaneous, Day 1, normalized to SC 45 μg): 0.0747 ng/mL; AUC(0-t) ([2]; subcutaneous, Day 1, normalized to SC 45 μg, read-out: AUC(0-4)): 0.0412 ng·h/mL; Tmax ([2]; Day 1, SC, averaged for all subjects): 13.2 min; half-life ([2]; Day 1, SC, averaged for all subjects, read-out: T½ (converted)): 37.2 min; NOAEL at 12 mth (Toxicity, 12 mth monkey): 2 µg/kg; fold less nephrotoxic than PTH-(1-34) (monkey; 12 mth monkey): >4-fold less; hypercalaemic (DIFFERENCES column) (monkey; 12 mth monkey): Ostabolin-C not; Bone hypertrophy (monkey; Ostabolin C 0, 2, 10, 25 μg/kg, 12 mth monkey): hypertrophy all; fold safer than PTH-(1-34) (monkey; pre-clinical toxicity): at least 4 fold; nephrotoxicity (monkey; pre-clinical toxicity): nephrotoxic only in monkeys; Pts > 2.75 mmol/L (sustained) [3]: 0
